PMC10819888, “Benzimidazole-Based Derivatives as Apoptotic Antiproliferative Agents: Design, Synthesis, Docking, and Mechanistic Studies” (Molecules, 2024)

Tests used:
caspase-3 = experiment: Caspase-3 activation assay; format: cell-based, human; details: PC-3 cell line
Excerpt: Caspase-3 is a key caspase that cleaves numerous cell proteins, resulting in apoptosis. […] They elevated the protein caspase-3 in the PC-3 cancer cell line by around seven to nine times compared to untreated control cells.
(§1) For more details, see Supplementary Materials. […]
4.2.3. Caspase-3 activation assay
Allow all reagents to reach room temperature before use. Gently mix all liquid reagents prior to use. Determine the number of 8-well strips needed for the assay. Insert these in the frame(s) for current use. Add 100 μl of the Standard Diluent Buffer to the zero standard wells. Well(s) reserved for chromogen blank should be left empty. Add 100 μl of standards and controls or diluted samples to the appropriate microtiter wells. The sample dilution chosen should be optimized for each experimental system. Tap gently on side of plate to mix. Cover wells with plate cover and incubate for 2 hours at room temperature. Thoroughly aspirate or decant solution from wells and discard the liquid, Wash wells 4 times. Pipette 100 μl of Caspase-3 (Active) Detection Antibod y solution into each well except the chromogen blank(s). Tap gently on the side of the plate to mix.
Cover plate with plate cover and incubate for 1 hour at room temperature. Thoroughly aspirate or decant solution from wells and discard the liquid, Wash well s 4 times. Add 100 μl Anti-Rabbit IgG HRP Working Solution to each well except the chromogen blank(s). Prepare the working dilution as described in Preparing IgG HRP. Cover wells with the plate cover and incubate for 30 minutes at room temperature. Thoroughly aspirate or decant solution from wells and discard the liquid. Wash wells 4 times. Add 100 μl of Stabilized Chromogen to each well. The liquid in the wells will begin to turn blue. Incubate for 30 minutes at room temperature and in the dark. The incuba tion time for chromogen substrate is often determined by the microtiter plate reader used. Many plate readers have the capacity to record a maximum optical density (O.D.) of 2.0. The O.D. values should be monitored, and the substrate reaction stopped befor e the O.D. of […]
the positive wells exceeds the limits of the instrument. The O.D. values at 450 nm can only be read after the Stop Solution has been added to each well. If using a reader that […]
100 μl of Stop Solution to each well. Tap side of plate gently to mix. The solution in the wells should change from blue to yellow. Read the absorbance of each well at 450 nm having blanked the plate reader against a chromogen blank composed of 100 μl each of Stabilized Chromogen and Stop Solution. Read the plate within 2 hours after adding the Stop Solution. Use a curve fitting software to generate the standard curve. A four-parameter algorithm provides the best standard curve fit. Read the concentrations for unknown samples and controls from the standard curve. Multiply value(s) obtained for sample(s) by the appropriate dilution factor to correct for the dilution in step 3. Samples producing signals greater than that of the highest standard should be diluted in Standard Diluent Buffer and reanalyzed. […]
A standard curve is […]
prepared from 7human Caspase-8 standard dilutions and human Caspase-8 concentration determined.

Bcl-2 = Bcl-2 inhibition assay; format: cell-based, human; details: PC-3 cell line; for down-regulation of anti-apoptotic Bcl-2 protein levels: compared to staurosporine
Protocol: as §1
4.2.6. Bcl-2 inhibition assay
Mix all reagents thoroughly without foaming before use. Wash the microwells twice with approximately 300 μL Wash Buffer per well with thorough aspiration of microwell contents between washes. Take caution not to scratch the surface of the microwells.
After the last wash, empty the wells and tap microwell strips on absorbent pad or paper towel to remove excess Wash Buffer. Use the microwell strips immediately after washing or place upside down on a wet absorbent paper for not longer than 15 minutes.
Add 100 μL of Sample Diluent in duplicate to all standard wells and to the blank wells. Prepare standard (1:2 dilution) in duplicate ranging from 32 ng/mL to 0.5 ng/mL. Add 100 μL of Sample Diluent, in duplicate, to the blank wells.
Add 80 μL of Sample Diluent, in duplicate, to the sample wells. Add 20 μL of each Sample, in duplicate, to the designated wells. Add 50 μL of diluted biotin-conjugate to all wells, including the blank wells. Cover with a plate cover and incubate at room temperature, on a microplate shaker at 100 rpm if available, for 2 hours. Remove plate cover and empty the wells. Wash microwell strips 3 times as described in step 2. Add 100 μL of diluted Streptavidin-HRP to all wells, including the blank wells. Cover with a plate cover and incubate at room temperature, on a microplate shaker at 100 rpm if available, for 1 hour. Remove plate cover and empty the wells. Wash microwell strips […]
3 times as described in step 2. Proceed to the next step. Pipette 100 μl of mixed TMB Substrate Solution to all wells, including the blanks. Incubate the microwell strips at room temperature (18° to 25°C) for about 15 minutes, if available on a rotator set at 100 rpm. Avoid direct exposure to intense light. The point, at which the substrate reaction is stopped, is often determined by the ELISA reader. Many ELISA readers record absorbance only up to 2.0 O.D. Therefore, the color development within individual microwells must be watched by the person running the assay and the substrate reaction stopped before positive wells are no longer properly detectable. Stop the enzyme reaction by quickly pipetting 100 μL of Stop Solution into each well, including the blank wells. It is important that the Stop Solution is spread quickly and uniformly throughout the microwells to completely inactivate the enzyme. Results must be read immediately after the Stop Solution is added or within one hour if the microwell strips are stored at 2 - 8°C in the dark. Read absorbance of each microwell on a spectrophotometer using 450 nm as the primary wavelength.
4.3. Statistical analysis
Computerized Prism 5 program was used to statistically analyzed data using one-way ANOVA test followed by Tukey’s as post ANOVA for multiple comparison at P ≤.05.
Data were presented as mean ± SEM.

Compound	Caspase-3 Conc (caspase-3)	caspase-3 protein level (caspase-3)	Bcl-2 Conc (Bcl-2)	down-regulation of anti-apoptotic Bcl-2 protein levels (Bcl-2)	Caspase-3 Fold Change (caspase-3; vs control)	Bcl-2 Fold Reduction (Bcl-2; vs control)
O=C(NN=Cc1ccc([N+](=O)[O-])cc1)c1ccc2[nH]c(-c3ccc(Cl)cc3)nc2c1 [Compound 4c, N′-(4-Nitrobenzylidene)-2-(4-chlorophenyl)-1H-benzimidazole-5-carbohydrazide]	365 ± 12 pg/mL	365 ± 12 pg/mL	0.80 ng/mL	equipotent down-regulation	–	–
O=C(NN=Cc1ccc(Cl)cc1)c1ccc2[nH]c(-c3ccc(Cl)cc3)nc2c1 [Compound 4e, N′-(4-Chlorobenzylidene)-2-(4-chlorophenyl)-1H-benzimidazole-5-carbohydrazide]	470 ± 15 pg/mL	470 ± 15 pg/mL	0.75 ng/mL	equipotent down-regulation	9	4
